Measured values taken from PubChem BioAssay (NCI).
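All cell lines were grown in 96-well plates and treated with compound for 48 hours. At the TGI there is no net growth.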

Experiments:
Assay in all cases: inhibition of tumour cell growth, NCI panel, 48 h
MOLT-4 leukemia = tested on: MOLT-4 leukemia
A549 NSCLC = tested on: A549 NSCLC
RXF 393 renal = tested on: RXF 393 renal
HCC-2998 colon = tested on: HCC-2998 colon
IGROV1 ovarian = tested on: IGROV1 ovarian
EKVX NSCLC = tested on: EKVX NSCLC
MCF7 breast = tested on: MCF7 breast
UACC-62 melanoma = tested on: UACC-62 melanoma
MDA-MB-231 breast = tested on: MDA-MB-231 breast
NCI-H460 lung = tested on: NCI-H460 lung
SF-539 CNS = tested on: SF-539 CNS
CCRF-CEM leukemia = tested on: CCRF-CEM leukemia
U251 CNS = tested on: U251 CNS
NCI-H226 lung = tested on: NCI-H226 lung
SK-MEL-28 melanoma = tested on: SK-MEL-28 melanoma
RPMI-8226 leukemia = tested on: RPMI-8226 leukemia
NCI-H522 lung = tested on: NCI-H522 lung
MALME-3M melanoma = tested on: MALME-3M melanoma
DU-145 prostate = tested on: DU-145 prostate
SN12C renal = tested on: SN12C renal
SW-620 colon = tested on: SW-620 colon
KM12 colon = tested on: KM12 colon
COLO 205 colon = tested on: COLO 205 colon
OVCAR-4 ovarian = tested on: OVCAR-4 ovarian
ACHN renal = tested on: ACHN renal
HCT-15 colon = tested on: HCT-15 colon
A498 renal = tested on: A498 renal
SK-MEL-5 melanoma = tested on: SK-MEL-5 melanoma
MDA-N = tested on: MDA-N
LOX IMVI melanoma = tested on: LOX IMVI melanoma
NCI-H23 lung = tested on: NCI-H23 lung
CAKI-1 renal = tested on: CAKI-1 renal
TK-10 renal = tested on: TK-10 renal
SNB-75 CNS = tested on: SNB-75 CNS
HL-60(TB) leukemia = tested on: HL-60(TB) leukemia
K-562 leukemia = tested on: K-562 leukemia
HCT-116 colon = tested on: HCT-116 colon
786-0 renal = tested on: 786-0 renal
NCI/ADR-RES ovarian = tested on: NCI/ADR-RES ovarian
PC-3 prostate = tested on: PC-3 prostate
SNB-19 CNS = tested on: SNB-19 CNS
SF-268 CNS = tested on: SF-268 CNS
MDA-MB-435 = tested on: MDA-MB-435
OVCAR-8 ovarian = tested on: OVCAR-8 ovarian
T-47D breast = tested on: T-47D breast
M14 melanoma = tested on: M14 melanoma
OVCAR-3 ovarian = tested on: OVCAR-3 ovarian
HS 578T breast = tested on: HS 578T breast
SF-295 CNS = tested on: SF-295 CNS
OVCAR-5 ovarian = tested on: OVCAR-5 ovarian
UO-31 renal = tested on: UO-31 renal
UACC-257 melanoma = tested on: UACC-257 melanoma
SK-OV-3 ovarian = tested on: SK-OV-3 ovarian
HOP-62 NSCLC = tested on: HOP-62 NSCLC
SR leukemia = tested on: SR leukemia
HOP-92 NSCLC = tested on: HOP-92 NSCLC
HT29 colon = tested on: HT29 colon
SK-MEL-2 melanoma = tested on: SK-MEL-2 melanoma
BT-549 breast = tested on: BT-549 breast

## Cc1ccc2c(c1)C(=O)C1(C2)Cc2cccc(C)c2C1=O (centres undefined)
MOLT-4 leukemia
  TGI: > 100 µM
A549 NSCLC
  TGI: > 100 µM
RXF 393 renal
  TGI: > 100 µM
HCC-2998 colon
  TGI: > 100 µM
IGROV1 ovarian
  TGI: > 100 µM
EKVX NSCLC
  TGI: > 100 µM
MCF7 breast
  TGI: > 100 µM
UACC-62 melanoma
  TGI: > 100 µM
MDA-MB-231 breast
  TGI: > 100 µM
NCI-H460 lung
  TGI: > 100 µM
SF-539 CNS
  TGI: > 100 µM
CCRF-CEM leukemia
  TGI: > 100 µM
U251 CNS
  TGI: > 100 µM
NCI-H226 lung
  TGI: > 100 µM
SK-MEL-28 melanoma
  TGI: > 100 µM
RPMI-8226 leukemia
  TGI: > 100 µM
NCI-H522 lung
  TGI: > 100 µM
MALME-3M melanoma
  TGI: > 100 µM
DU-145 prostate
  TGI: > 100 µM
SN12C renal
  TGI: > 100 µM
SW-620 colon
  TGI: > 100 µM
KM12 colon
  TGI: > 100 µM
COLO 205 colon
  TGI: > 100 µM
OVCAR-4 ovarian
  TGI: > 100 µM
ACHN renal
  TGI: > 100 µM
HCT-15 colon
  TGI: > 100 µM
A498 renal
  TGI: > 100 µM
SK-MEL-5 melanoma
  TGI: > 100 µM
MDA-N
  TGI: > 100 µM
LOX IMVI melanoma
  TGI: > 100 µM
NCI-H23 lung
  TGI: > 100 µM
CAKI-1 renal
  TGI: 32.4 µM
TK-10 renal
  TGI: > 100 µM
SNB-75 CNS
  TGI: > 100 µM
HL-60(TB) leukemia
  TGI: > 100 µM
K-562 leukemia
  TGI: > 100 µM
HCT-116 colon
  TGI: > 100 µM
786-0 renal
  TGI: > 100 µM
NCI/ADR-RES ovarian
  TGI: > 100 µM
PC-3 prostate
  TGI: > 100 µM
SNB-19 CNS
  TGI: > 100 µM
SF-268 CNS
  TGI: > 100 µM
MDA-MB-435
  TGI: > 100 µM
OVCAR-8 ovarian
  TGI: > 100 µM
T-47D breast
  TGI: > 100 µM
M14 melanoma
  TGI: > 100 µM
OVCAR-3 ovarian
  TGI: > 100 µM
HS 578T breast
  TGI: > 100 µM
SF-295 CNS
  TGI: > 100 µM
OVCAR-5 ovarian
  TGI: > 100 µM
UO-31 renal
  TGI: > 100 µM
UACC-257 melanoma
  TGI: > 100 µM
SK-OV-3 ovarian
  TGI: > 100 µM
HOP-62 NSCLC
  TGI: > 100 µM
SR leukemia
  TGI: > 100 µM
HOP-92 NSCLC
  TGI: > 100 µM
HT29 colon
  TGI: > 100 µM

## CSc1cnc2ccccc2c1SC1CN(Cc2ccccc2)c2ccccc2C1=O (centres undefined)
MOLT-4 leukemia
  TGI: > 100 µM
A549 NSCLC
  TGI: > 100 µM
RXF 393 renal
  TGI: > 100 µM
HCC-2998 colon
  TGI: > 100 µM
IGROV1 ovarian
  TGI: > 100 µM
EKVX NSCLC
  TGI: > 100 µM
MCF7 breast
  TGI: > 100 µM
UACC-62 melanoma
  TGI: > 100 µM
MDA-MB-231 breast
  TGI: > 100 µM
NCI-H460 lung
  TGI: > 100 µM
SF-539 CNS
  TGI: > 100 µM
CCRF-CEM leukemia
  TGI: > 100 µM
U251 CNS
  TGI: > 100 µM
NCI-H226 lung
  TGI: > 100 µM
SK-MEL-28 melanoma
  TGI: > 100 µM
RPMI-8226 leukemia
  TGI: > 100 µM
NCI-H522 lung
  TGI: > 100 µM
MALME-3M melanoma
  TGI: > 100 µM
DU-145 prostate
  TGI: > 100 µM
SN12C renal
  TGI: > 100 µM
SW-620 colon
  TGI: > 100 µM
KM12 colon
  TGI: > 100 µM
COLO 205 colon
  TGI: > 100 µM
OVCAR-4 ovarian
  TGI: > 100 µM
ACHN renal
  TGI: > 100 µM
HCT-15 colon
  TGI: > 100 µM
A498 renal
  TGI: > 100 µM
SK-MEL-5 melanoma
  TGI: > 100 µM
MDA-N
  TGI: > 100 µM
LOX IMVI melanoma
  TGI: > 100 µM
NCI-H23 lung
  TGI: > 100 µM
CAKI-1 renal
  TGI: > 100 µM
TK-10 renal
  TGI: > 100 µM
SNB-75 CNS
  TGI: > 100 µM
HL-60(TB) leukemia
  TGI: > 100 µM
K-562 leukemia
  TGI: > 100 µM
HCT-116 colon
  TGI: > 100 µM
786-0 renal
  TGI: > 100 µM
NCI/ADR-RES ovarian
  TGI: > 100 µM
PC-3 prostate
  TGI: > 100 µM
SNB-19 CNS
  TGI: > 100 µM
SF-268 CNS
  TGI: > 100 µM
SK-MEL-2 melanoma
  TGI: > 100 µM
MDA-MB-435
  TGI: > 100 µM
T-47D breast
  TGI: > 100 µM
M14 melanoma
  TGI: > 100 µM
OVCAR-3 ovarian
  TGI: > 100 µM
SF-295 CNS
  TGI: > 100 µM
OVCAR-5 ovarian
  TGI: > 100 µM
UO-31 renal
  TGI: > 100 µM
UACC-257 melanoma
  TGI: > 100 µM
BT-549 breast
  TGI: > 100 µM
SK-OV-3 ovarian
  TGI: > 100 µM
HOP-62 NSCLC
  TGI: > 100 µM
SR leukemia
  TGI: > 100 µM
HOP-92 NSCLC
  TGI: > 100 µM
HT29 colon
  TGI: > 100 µM
